Molecules are shown by their SMILES. Bounds are passed on as bounds.

For assay [1], the system named is human JAK1 (a.a. 837-1142). Description: In vitro JAK kinase assay (HTRF), JAK1. The format is biochemical. The note with it: IC50 ratio at 1 mM ATP. (In general: Time-resolved FRET reads energy transfer from a long-lived donor to a nearby acceptor.)
Assay [2] has as its target human JAK1 (a.a. 837-1142) (Homo sapiens, UniProt P23458). Put plainly: In vitro JAK kinase assay (HTRF), JAK1. The format is biochemical. Conditions: 1 mM ATP.
In assay [3] the test system is Transformed human keratinocyte (HaCaT) cells stimulated with TNFα and IFNγ. Description: JAK inhibitors in TNFα/IFNγ stimulated keratinocytes, inflammatory mediators in media (ProCarta Multiplex Immunoassay). The note with it: mean ± 1 standard error.
For assay [4] the test system is unchanged. Description: JAK inhibitors in TNFα/IFNγ stimulated keratinocytes, gene expression (QuantiGene Plex). Conditions: 24 hours, normalized to HPRT1, mean ± standard error.
Setting [5] is: TNFα (25 ng/mL) and IFNγ (25 ng/mL) stimulation, drug 25 nM.
Setting [6] is: TNFα (25 ng/mL) and IFNγ (25 ng/mL) stimulation, drug 50 nM.
Setting [7] is: TNFα (25 ng/mL) and IFNγ (25 ng/mL) stimulation, drug 100 nM.
The mark [8] stands for this setting: TNFα (25 ng/mL) and IFNγ (25 ng/mL) stimulation, drug 200 nM.
Setting [9] is: TNFα (25 ng/mL) and IFNγ (25 ng/mL), drug 25 nM.
[10] abbreviates: TNFα (25 ng/mL) and IFNγ (25 ng/mL), drug 50 nM.
Setting [11] is: TNFα (25 ng/mL) and IFNγ (25 ng/mL), drug 100 nM.
Setting [12] is: TNFα (25 ng/mL) and IFNγ (25 ng/mL), drug 200 nM.

As to `N#CCC1(n2cc(-c3ncnc4[nH]ccc34)cn2)CN([C@H]2CC[C@@H](Oc3cc(CN4CC[C@@H](O)C4)cc(C(F)(F)F)n3)CC2)C1` [Compound 21, {1-(cis-4-{[4-{[(3R)-3-hydroxypyrrolidin-1-yl]methyl}-6-(trifluoromethyl)pyridin-2-yl]oxy}cyclohexyl)-3-[4-(7H-pyrrolo[2,3-d]pyrimidin-4-yl)-1H-pyrazol-1-yl]azetidin-3-yl}acetonitrile], the JAK2/JAK1 in assay [1] was >10. Also, in assay [2], the IC50 (usually the concentration at which inhibition is half-maximal) is < 10 nM.
On to `C[C@@H](CO)NCc1cc(OC2CCN([C@H]3C[C@](CC#N)(n4cc(-c5ncnc6[nH]ccc56)cn4)C3)CC2)nc(C(F)(F)F)c1` [Compound 23, {trans-3-(4-{[4-({[(1S)-2-hydroxy-1-methylethyl]amino}methyl)-6-(trifluoromethyl)pyridin-2-yl]oxy}piperidin-1-yl)-1-[4-(7H-pyrrolo[2,3-d]pyrimidin-4-yl)-1H-pyrazol-1-yl]cyclobutyl}acetonitrile], for which the JAK2/JAK1 in assay [1] was >10. Moreover, the IC50 in assay [2] is < 10 nM.
For `N#CCC1(n2cc(-c3ncnc4[nH]ccc34)cn2)CN([C@H]2CC[C@@H](Oc3cc(CN4CC[C@H](O)C4)cc(C(F)(F)F)n3)CC2)C1` [Compound 22, {1-(cis-4-{[4-{[(3S)-3-hydroxypyrrolidin-1-yl]methyl}-6-(trifluoromethyl)pyridin-2-yl]oxy}cyclohexyl)-3-[4-(7H-pyrrolo[2,3-d]pyrimidin-4-yl)-1H-pyrazol-1-yl]azetidin-3-yl}acetonitrile] the same measures were >10 and < 10 nM.
In the case of `N#CC[C@]1(n2cc(-c3ncnc4[nH]ccc34)cn2)C[C@H](N2CCC(Oc3cc(CN4CCC[C@@H]4CO)cc(C(F)(F)F)n3)CC2)C1` [Compound 13, {trans-3-(4-{[4-{[(2R)-2-(hydroxymethyl)pyrrolidin-1-yl]methyl}-6-(trifluoromethyl)pyridin-2-yl]oxy}piperidin-1-yl)-1-[4-(7H-pyrrolo[2,3-d]pyrimidin-4-yl)-1H-pyrazol-1-yl]cyclobutyl}acetonitrile], the JAK2/JAK1 in assay [1] is >10. For the same compound, in assay [2], the IC50 is < 10 nM.
For `N#CC[C@]1(n2cc(-c3ncnc4[nH]ccc34)cn2)C[C@H](N2CCC(Oc3cc(CN4CCC[C@H]4CO)cc(C(F)(F)F)n3)CC2)C1` [Compound 12, {trans-3-(4-{[4-{[(2S)-2-(hydroxymethyl)pyrrolidin-1-yl]methyl}-6-(trifluoromethyl)pyridin-2-yl]oxy}piperidin-1-yl)-1-[4-(7H-pyrrolo[2,3-d]pyrimidin-4-yl)-1H-pyrazol-1-yl]cyclobutyl}acetonitrile] the same measures were >10 and < 10 nM.
For the compound `Cc1n[nH]c(C)c1-c1cnn(C2(CC#N)CN(c3cc(F)c(C(=O)N[C@@H](C)C(F)(F)F)cc3F)C2)c1` [Compound 4], in assay [3] (setting [5]), the “IL-1α concentration in media” value is recorded as 7.74 ± 0.36 pg/mL, the “IL-6 concentration in media” value was 774.87 ± 31.09 pg/mL, the “IP-10/CXCL10 concentration in media” value stood at 3999.39 ± 370.53 pg/mL and the “MIP1α concentration in media” value worked out at 101.71 ± 3.84 pg/mL. In addition, the “RANTES concentration in media” value in assay [3] (setting [5]) worked out at 216.88 ± 13.45 pg/mL. In addition, in assay [3] (setting [6]), the “IL-1α concentration in media” value came out at 7.01 ± 0.39 pg/mL, the “IL-6 concentration in media” value was 710.89 ± 36.7 pg/mL, the “IP-10/CXCL10 concentration in media” value was 3665.2 ± 277.11 pg/mL and the “MIP1α concentration in media” value stood at 104.54 ± 6.56 pg/mL. Also, the “RANTES concentration in media” value in assay [3] (setting [6]) is 201.93 ± 15.44 pg/mL. For the same compound, in assay [3] (setting [7]), the “IL-1α concentration in media” value stood at 7.27 ± 0.47 pg/mL, the “IL-6 concentration in media” value stood at 690.4 ± 35.25 pg/mL, the “IP-10/CXCL10 concentration in media” value is reported as 3860.41 ± 323.05 pg/mL and the “MIP1α concentration in media” value is 96.4 ± 4.18 pg/mL. Besides, in assay [3] (setting [7]), the “RANTES concentration in media” value amounted to 207.79 ± 17.38 pg/mL. In assay [3] (setting [8]), the “IL-1α concentration in media” value was found to be 6.45 ± 0.38 pg/mL, the “IL-6 concentration in media” value is reported as 621.79 ± 33.44 pg/mL, the “IP-10/CXCL10 concentration in media” value was 3835.78 ± 304.58 pg/mL and the “MIP1α concentration in media” value is given as 98.72 ± 3.87 pg/mL. Moreover, the “RANTES concentration in media” value in assay [3] (setting [8]) is on record as 189.62 ± 13.78 pg/mL. Also, in assay [3] (no stimulation, drug 200 nM), the “IL-1α concentration in media” value was 0.30 ± 0.05 pg/mL, the “IL-6 concentration in media” value came out at 28.79 ± 2.91 pg/mL, the “IP-10/CXCL10 concentration in media” value turned out to be 20.23 ± 0.48 pg/mL and the “MIP1α concentration in media” value is given as 2.90 ± 0.21 pg/mL. Further, the “RANTES concentration in media” value in assay [3] (no stimulation, drug 200 nM) stood at 8.61 ± 0.52 pg/mL. Besides, in assay [4] (setting [9]), the “IL-1α MFI” value amounted to 1370.52 ± 35.28, the “IL-6 MFI” value is listed as 135.32 ± 3.36, the “JAK1 MFI” value is on record as 206.29 ± 6.84 and the “JAK2 MFI” value is given as 114.94 ± 2.16. In addition, in assay [4] (setting [9]), the “JAK3 MFI” value came to 1.02 ± 0.19, the “STAT1 MFI” value worked out at 3111.17 ± 182.20, the “STAT3 MFI” value is listed as 1557.84 ± 58.15 and the “STAT4 MFI” value was determined as 5.65 ± 0.44. In addition, in assay [4] (setting [9]), the “STAT5A MFI” value is listed as 22.82 ± 1.77, the “STAT6 MFI” value is 1020.89 ± 23.57 and the “TYK2 MFI” value was 283.97 ± 8.59. In addition, in assay [4] (setting [10]), the “IL-1α MFI” value was 1308.7 ± 45.12, the “IL-6 MFI” value is recorded as 128.14 ± 6.83, the “JAK1 MFI” value came out at 194.2 ± 8.24 and the “JAK2 MFI” value worked out at 107.16 ± 2.86. In assay [4] (setting [10]), the “JAK3 MFI” value was found to be 0.99 ± 0.16, the “STAT1 MFI” value amounted to 3058.64 ± 154.86, the “STAT3 MFI” value was 1519.61 ± 69.92 and the “STAT4 MFI” value came to 5.41 ± 0.33. Further, in assay [4] (setting [10]), the “STAT5A MFI” value was 20.71 ± 1.77, the “STAT6 MFI” value turned out to be 982.62 ± 14.34 and the “TYK2 MFI” value was 273.68 ± 7.44. In assay [4] (setting [11]), the “IL-1α MFI” value is recorded as 1194.29 ± 12.27, the “IL-6 MFI” value was determined as 112.13 ± 3.37, the “JAK1 MFI” value came to 193.28 ± 4.55 and the “JAK2 MFI” value was 95.51 ± 3.13. In addition, in assay [4] (setting [11]), the “JAK3 MFI” value came to 0.99 ± 0.15, the “STAT1 MFI” value worked out at 3035.33 ± 122.14, the “STAT3 MFI” value stood at 1457.24 ± 54.48 and the “STAT4 MFI” value is listed as 5.32 ± 0.46. For the same compound, in assay [4] (setting [11]), the “STAT5A MFI” value was 18.44 ± 1.85, the “STAT6 MFI” value is 943.66 ± 25.99 and the “TYK2 MFI” value was determined as 266 ± 6.82. For the same compound, in assay [4] (setting [12]), the “IL-1α MFI” value was found to be 1151.31 ± 20.01, the “IL-6 MFI” value is recorded as 101.17 ± 2.91, the “JAK1 MFI” value is given as 182.86 ± 4.07 and the “JAK2 MFI” value was 91.17 ± 2.15. In assay [4] (setting [12]), the “JAK3 MFI” value is 0.85 ± 0.15, the “STAT1 MFI” value amounted to 2984.14 ± 163.4, the “STAT3 MFI” value is 1483.1 ± 51.73 and the “STAT4 MFI” value is recorded as 5.04 ± 0.36. Besides, in assay [4] (setting [12]), the “STAT5A MFI” value was 17.64 ± 1.46, the “STAT6 MFI” value amounted to 966.51 ± 12.3 and the “TYK2 MFI” value came out at 263.49 ± 5.05. For the same compound, in assay [4] (no stimulation, drug 200 nM), the “IL-1α MFI” value is 88.72 ± 5.90, the “IL-6 MFI” value is 4.98 ± 0.28, the “JAK1 MFI” value is 177.67 ± 11.84 and the “JAK2 MFI” value was 25.25 ± 1.04. Besides, in assay [4] (no stimulation, drug 200 nM), the “JAK3 MFI” value came to 0.68 ± 0.17, the “STAT1 MFI” value is recorded as 554.39 ± 11.80, the “STAT3 MFI” value is on record as 746.17 ± 16.73 and the “STAT4 MFI” value stood at 4.28 ± 0.61. Besides, in assay [4] (no stimulation, drug 200 nM), the “STAT5A MFI” value is on record as 1.75 ± 0.44, the “STAT6 MFI” value is on record as 762.04 ± 9.44 and the “TYK2 MFI” value is 217.28 ± 14.28.

Source of the values: US11304949B2, “Treatment of hidradenitis suppurativa using JAK inhibitors” (Incyte Corporation, priority 2018, dated 2022).
